The results in this text go back to patent publication US10251874B2, “Crystalline forms of a JAK inhibitor compound” (THERAVANCE BIOPHARMA R&D IP, LLC, priority 2017, dated 2019).

In data set [1] the test system is IL-13 induced pSTAT6 in lung tissue. The data set can be described thus: Assay 9: Murine model of IL-13 induced pSTAT6 induction in lung tissue. The data set is classed as in vivo, balb/c mice. Conditions: mouse, 0.5 mg/mL 50 μL oral aspiration; after IL-13 challenge (so in the source). The method, then: 11-13 is an important cytokine underlying the pathophysiology of asthma (Kudlacz et al. Eur. J. Pharmacol, 2008, 582,154-161). IL-13 binds to cell surface receptors activating members of the Janus family of kinases (JAK) which then phosphorylate STAT6 and subsequently activates further transcription pathways. In the described model, a dose of IL-13 was delivered locally into the lungs of mice to induce the phosphorylation of STAT6 (pSTAT6) which is then measured as the endpoint.
Adult balb/c mice from Harlan were used in the assay. On the day of study, animals were lightly anesthetized with isoflurane and administered either vehicle or test compound (0.5 mg/mL, 50 μL total volume over several breaths) via oral aspiration. Animals were placed in lateral recumbency post dose and monitored for full recovery from anesthesia before being returned to their home cage. Four hours later, animals were once again briefly anesthetized and challenged with either vehicle or IL-13 (0.03 μg total dose delivered, 50 μL total volume) via oral aspiration before being monitored for recovery from anesthesia and returned to their home cage. […] using an anti-pSTAT6 ELISA (rabbit mAb capture/coating antibody; mouse mAb detection/report antibody: anti-pSTAT6-pY641; secondary antibody: anti-mouse IgG-HRP) and analyzed for total drug concentration as described above in Assay 12. […]

For data set [2], the system named is IL-2 stimulated pSTAT5 in CD4+ T cells. Nature of the data set: Assay 4: Inhibition of IL-2 stimulated pSTAT5 in CD4+ T cells. To be noted: CD4+ T cells in human PBMCs, flow cytometry; read-out: pIC50, inhibition of IL-2 stimulated pSTAT5 (converted). The data set is classed as cell-based. The protocol:
The potency of the test compound for inhibition of interleukin-2 (IL-2)/anti-CD3 stimulated STATS phosphorylation was measured in CD4-positive (CD4+) T cells in human peripheral blood mononuclear cells (PBMCs) isolated from human whole blood (Stanford Blood Center) using flow cytometry. Because IL-2 signals through JAK, this assay provides a measure of JAK cellular potency.
CD4+T cells were identified using a […] (PE) conjugated anti-CD4 antibody (Clone RPA-T4, BD Biosciences), while an Alexa Fluor 647 conjugated anti-pSTAT5 antibody (pY694, Clone 47, BD Biosciences) was used to detect STATS phosphorylation.
(1) The protocol of Assay 3 paragraph (1) was followed with the exception that the cytokine stimulation with anti-CD3 was performed for 30 min instead of 24 h. […] After incubation, cells were washed twice in FACS buffer before being analyzed using a LSRII flow cytometer (BD Biosciences). To determine the inhibitory potency of the test compound in response to IL-^2/anti-CD3, the median fluorescent intensity (MFI) of pSTAT5 was measured in CD4+ T cells. IC50 values were determined from analysis of the inhibition curves of MFI vs compound concentration. Data are expressed as pIC50 (negative decadic logarithm IC50) values.

Data set [3] is described as follows: Assay 8: Pharmacokinetics in plasma and lung in mouse. To be noted: BALB/c, 10 µg/mouse, oral aspiration, 0.2 mg/mL, 50 uL, read-out: exposure in lung relative to exposure in plasma (lung AUC to plasma AUC ratio). The data set is classed as in vivo, BALB/c mice. The protocol: Plasma and lung levels of test compounds and ratios thereof were determined in the following manner. BALB/c mice from Charles River Laboratories were used in the assay. Test compounds were individually formulated in 20% propylene glycol in pH 4 citrate buffer at a concentration of 0.2 mg/mL and 50 uL of the dosing solution was introduced into the trachea of a mouse by oral aspiration. At various time points (typically 0.167, 2, 6, 24 hr) post dosing, blood samples were removed via cardiac puncture and intact lungs were excised from the mice. Blood samples were centrifuged (Eppendorf centrifuge, 5804R) for 4 minutes at approximately 12,000 rpm at 4° C. to collect plasma. Lungs were padded dry, weighed, and homogenized at a dilution of 1:3 in sterile water. Plasma and lung levels of test compound were determined by LC-MS analysis against analytical standards constructed into a standard curve in the test matrix. A lung to plasma ratio was determined as the ratio of the lung AUC in μg hr/g to the plasma AUC in μg hr/mL, where AUC is conventionally defined as the area under the curve of test compound concentration vs. time.

For `CCc1cc(O)c(F)cc1-c1ccc2c(-c3nc4c([nH]3)CCN(C3CCN(C)CC3)C4)n[nH]c2c1` [Compound 1, 5-ethyl-2-fluoro-4-(3-(5-(1-methylpiperidin-4-yl)-4,5,6,7-tetrahydro-1H-imidazo[4,5-c]pyridin-2-yl)-1H-indazol-6-yl)phenol], the “inhibition of STAT6 phosphorylation in lung” value in data set [1] is listed as “about 60%”. In addition, the IC50 in data set [2] is roughly 0.02 µM. For the same molecule, the Kp in data set [3] was roughly 55.
